Test results published in US20250324966A1, “ADDITIVE FOR PRESERVING CELLS, TISSUE AND/OR FOOD” (Proteimax Bio Technology Israel LTD, priority 2021, published 2025).

Columns and labels:
[1] = tested on: fresh strawberries; experiment: Preservation of strawberries against rot at 4° C.; settings: 100 μM peptide in water, kept at 4° C., 5 days; intense rot visible in untreated group; FIG. 3 D
Experimental: (§1) The peptide of SEQ ID NO: 3, which comprises pep5 (SEQ ID NO: 1) and the cell-penetrating peptide (SEQ ID NO: 2), was prepared in a 100 μM solution in water, for direct topical use on the food to be preserved.
A new experiment with strawberries, now with the test and control groups being kept at a temperature of 4° C.
Representative results of strawberries in each condition (test and control) at 0 h, 24 h, 48 h and 5 days, respectively in A, B, C and D are shown.

[2] = tested on: bean seeds; experiment: Modulation of the germination rate of bean seeds; set-up: species or system black bean; settings: single dose 100 μM in water, moist cotton, vs water
Experimental: To evaluate the effects of the additive of the invention in the modulation of cell division or multiplication in plants, particularly in the modulation of seed germination and/or plant development, an experiment aimed at observing the germination of bean seeds and the subsequent development of seedlings was conducted. Groups of groups of 14 black bean seeds were placed in moist cotton, each group in one condition: control, with application of water; and test, with application of the additive of the invention as described below. The state of the seeds was observed and documented at times 0, 3 and 4, and the pattern and profile of germination of the beans were analyzed.
The results of germination of groups of 14 seeds in moist cotton in each condition (control and test) in 0, 3 and 4 days, respectively in A, B and C are shown.

[3] = tested on: fresh strawberries; experiment: Preservation of strawberries against fungal contamination, single topical application; settings: 100 μM peptide in water
Experimental: as §1
The peptide of SEQ ID NO: 15, which comprises the peptide of SEQ ID NO: 9 and the cell penetrating peptide of SEQ ID NO: 2, was prepared in a 100 μM solution in water, for use in the food or plant to be preserved.
The additive prepared according to example 1 was used in experiments for food preservation by single topical application.
The results of groups of 10 strawberries in each condition (test and control) at 0, 12, 24, 36, 48 and 60 h, respectively in A, B, C, D, E and F are shown.

[4] = tested on: roses; experiment: Preservation of post-harvest flowers (roses), stems submerged in additive; set-up: species or system Rosa; settings: single dose 100 μM in water, room temperature (28° C.), 0, 3 and 6 days, vs H2O, FIG. 6
Experimental: (§2) In this context, as an experimental model to evaluate the preservation of flowers or inflorescences, two different types of flowers and their degradation/preservation profile were evaluated through incubation with water or with a solution of the preservation additive of the invention, keeping the flowers in room temperature for a few days.
(§3) The chosen flowers were the rose (Rose-red) and the Gerbera (Gerbera). Species of the genus Rosa are among the most ornamental flowers cultivated in the world. Species of the genus Gerbera are used as an experimental organism in studies of flowering and flower meristematic development, and because they contain natural coumarin derivatives, they are flowers of phytochemical interest and biological control.
(§4) In this embodiment, the peptide of SEQ ID NO: 15, which comprises the peptide of SEQ ID NO: 9 and the peptide of SEQ ID NO: 2, was used.
(§5) Four flowers were used in each container, the stems being kept submerged with at least 5 cm of the respective liquid during the test period. Aluminum foil was used around the container where the stems were submerged, to protect from the incidence of light. Photographic results of flowers kept in each condition (control and test) at 0, 3 and 6 days are shown. […]

[5] = tested on: Gerberas; experiment: Preservation of post-harvest flowers (Gerberas), stems submerged in additive; set-up: species or system Gerbera; settings: single dose 100 μM in water, room temperature (28° C.), 0, 3 and 6 days, vs H2O, FIG. 6
Experimental: as §2, §3, §4, §5

SEQ ID NO: 3: peptide containing the peptide of SEQ ID NO: 1 (WELVVLGKL) and the cell-penetrating peptide of SEQ ID NO: 2 (YGRKKRRQRRR) in the C-terminal region (WELVVLGKLYGRKKRRQRRR)
presence of intense rot in strawberries [1]: not detectable
seed germination process (number of bean seeds germinated) ([2]; room temperature (28° C.), 0, 3 and 4 days, FIGS. 4 and 5): delay in the seed germination process
metabolic state of the shoots or seedlings ([2]; room temperature (28° C.)): substantial modulation
fruit preservation (visual results, percentage of spoiled fruits) ([3]; single application, 0-60 h, vs water control, FIGS. 1 and 2): great potential for fruit preservation
presence of a fungus with white hyphae on strawberries ([3]; single topical application, FIG. 1 D and E (36 and 48 h), visible in water control): not detectable

SEQ ID NO: 15: peptide containing the peptide of SEQ ID NO: 9 and the cell-penetrating peptide of SEQ ID NO: 2 (WELVVLYGRKKRRQRRR)
preservation of flowers (roses), visual [4]: effective preservation
preservation of flowers (Gerberas), visual [5]: effective preservation
